According to patent US5340806A, “Composition containing organogermanium compound and immunity adjusting agent comprising the composition” (Sanwa Kagaku Kenkyusho Co., Ltd., priority 1984, dated 1994):
Where two headings read alike, the source gives them in different places.

How the values were obtained:
[1] = test system: adjuvant arthritis in rats; test: Adjuvant arthritis in rats; type: in vivo, S.D. male rats; details: 100 mg/kg/day oral, FIG. 12
Description: 0.05 ml of an adjuvant (prepared by suspending 0.6 mg of micobacteriumbutircum into 0.05 ml of liquid paraffin) was injected under the skin of a hind leg heel in S.D. male rats. After 1, 3, 5, 7, 21, and 28 days from the adjuvant dosage, the volume of the dosed and non-dosed legs was measured to determine a ratio of the edema.
The organogermanium compound was orally dosed for 28 days after the adjuvant dosage, in an amount of 1, 10 and 100 mg/kg/day, respectively.

[2] = test system: positive Arthus reaction in guinea pigs; test: Positive Arthus reaction in guinea pig; type: in vivo, Hartley male guinea pigs; details: 30 days, FIG. 11
Description: To 2% egg albumin solution, the same amount of Freund's complete adjuvant was added to prepare an emulsion. The emulsion was injected in 4 times by one time/week to Hartley male guinea pigs at a heel, under the skin and in the femoralis muscle, for sensitization. After 10 days from the final sensitization, 0.1 ml of 1% egg albumin solution was injected under the skin of the back to measure the area of resulting edema. The organogermanium compound was orally dosed for 30 days from the first sensitization in an amount of 0.1, 1.0 and 10 mg/kg/day.

[3] = test system: HIV (Human Immunodeficiency Virus); type: in vivo; details: for OKT4/8 ratio: before 0.36±0.03; for OKT4-value: before 463±64/μl
Description: Effects of the organogermanium compound are checked by giving the capsule obtained in Pharmaceutical Composition Preparing Example 7 to 6 patients infected by HIV (Human Immunodeficiency Virus), who are male hemophiliacs (Age: 6 to 22 years old) recognized as asymptomatic carriers, and among them 5 patients were positive to HIV and 1 patient was negative to HIV.
To each patient, the capsule was given in a dose of 80 mg/day for the patients of 10 years old or over and 40 mg/1 day for the patients less than 10 years old, for 9 months. The number of blood lymphocytes, OKT4 -value, OKT8 -value and OKT4/8 ratio, as well as the change in the virus marker (HIV, HIV antigen and HIV antibody) in blood of the patients were monitored. The separation of the HIV was carried out in accordance with the CDC (Communicable Disease Center) method, and the measurement of the HIV antigen was carried out using the Western blotting method.

chronic B hepatitis [4] = test: Long term dosing in chronic B hepatitis (In Vivo Utilization Example 4); set-up: species or system human patients; details: for Liver tissue improvement: Ballooning of cell: 4 patients; for Liver tissue improvement: Bridging necrosis: 9 patients; for Liver tissue improvement: Fatty degeneration: 11 patients; for Liver tissue improvement: Moderation of lobule: 15 patients; for Glisson's capsule improvement: Piecemeal necrosis: 17 patients; for Glisson's capsule improvement: Fibrosis: 23 patients; for Glisson's capsule improvement: Round cell infiltration / Liver tissue improvement: Cobwebby necrosis / Liver tissue improvement: Degenerative necrosis in cell / Liver tissue improvement: Mobilization image of Kupfer cell: 24 patients
Description: A capsule containing the organogermanium compound was dosed to patients infected with chronic B hepatitis over a long period of time at a rate of 30 mg/day/body as the effective compound to check safety and effectiveness.
(a) Number of patients for analysis: 34 persons.
(b) Mean dosing period of time: 55 weeks.
(c) Number of patients who continuously dose over 48 weeks: 26 persons.

[5] = test system: chronic non A non B hepatitis; type: in vivo, human patients; details: 60 mg/day, 12 weeks
Description: Utility or effectiveness of the organogermanium compound is checked in comparison with that of a placebo as a control. Interferons have widely been accepted as drugs for curing chronic hepatitis, but those are injectionally dosed. On the contrary, the organogermanium compound is orally dosed. In recent years, some oral medicines for curing liver diseases have been developed and the effectiveness thereof has been evaluated by using a placebo as its control. Therefore, the "placebo" is selected as the control for the evaluation of the organogermanium compound in question. (b) To patients with non A non B hepatitis: 60 mg/day/body. Experiment period of time was set for 16 weeks for the patients with chronic B hepatitis and for 12 weeks for the patients with non A and non B hepatitis.

chronic B hepatitis [6] = type: in vivo, human patients
Description: Search on utility or effectiveness of the organogermanium compound on patients who are infected with chronic B hepatitis, or with non A non B hepatitis, and show "positive" to HBe antigen as well as a preferable amount of dose thereof.
The amount of dose has been set as follows, by taking the results given in In Vivo Utilization Example 1 into consideration.
(a) 30 mg/day/body showing most preferable data in effectiveness, and
(b) 15 mg/day/body (half amount).
Experimental period of time was set for 12 weeks.
(a) Examination of liver functions (GOT, GPT, total bilirubin, LDH, y-GTP, and y-globulin), and
(b) Examination with use of HBV marker (HBe-Ag).

Substance: 3-oxygermylpropionic acid [Compound No. 1]
- effect on secondary phlegmasia after 14 to 28 days [1]: an inhibition effect to a secondary phlegmasia
- inhibition of phlegmasia (edema area) ([2]; 0.1 mg/kg/day oral): a recognizable inhibition of the phlegmasia
- inhibition of phlegmasia (edema area) ([2]; 1 mg/kg/day oral): a recognizable inhibition of the phlegmasia
- modification or decomposition in contact with water (control composition (water)): a modification or decomposition occurs
- lapsed time at which disturbance in the absorption spectrum was first observed (control: water in lieu of serum albumin, 25° C): 24 h
- disturbance in the absorption spectrum (control: water, after 60 hours): the disturbance was further increased
- side-effect in clinical observation ([3]; 9 months): did not show any side-effect
- OKT4/8 ratio ([3]; after 1 month): 0.42±0.02
- OKT4-value ([3]; after 2 months): 549 ± 89 µL⁻¹
- OKT4/8 ratio ([3]; after 3 months): 0.51±0.06
- OKT4/8 ratio ([3]; after 6 months): 0.54±0.05
- OKT4-value ([3]; after 6 months): 629 ± 97 µL⁻¹
- OKT8-value ([3]; after 6 months, before 1303±174/μl): 1154 ± 153 µL⁻¹
- number of lymphocytes ([3]; after 6 months, before 2430±311/μl): 2349 ± 312 µL⁻¹
- HIV disappeared (persons) ([3]; among 5 HIV positive patients, dosage over 6 months): 3 persons
- no change in virus marker (persons) ([3]; among 5 HIV positive patients, over 9 months): 2 persons
- change in OKT4-value ([3]; human, in vivo): a certain increasing tendency
- change in OKT4/8 ratio ([3]; human, in vivo): a slow increase in the ratio
- change in OKT8-value ([3]; human, in vivo): a certain decreasing tendency
- change in number of lymphocytes ([3]; human, in vivo): No noticeable change
- some increase in appetite and body weight (persons) ([3]; human, in vivo): 2 persons
- ratio of improvement in functions of liver (at least slight), judgement of doctor in charge (chronic B hepatitis [4]; 30 mg/day/body, mean 55 weeks): 63%
- ratio of improvement in functions of liver (at least slight), secondary judgement of committee (chronic B hepatitis [4]; 30 mg/day/body, mean 55 weeks): 59%
- patients changed to SC (seroconversion) (chronic B hepatitis [4]; among 23 HBe antigen positive): 3 patients
- patients changed to SN (seronegative) (chronic B hepatitis [4]; among 23 HBe antigen positive): 3 patients
- ratio of disappearance of HBe antigen (chronic B hepatitis [4]; among 23 HBe antigen positive): 26%
- Liver tissue improvement: Evaluation (chronic B hepatitis [4]; ≥middle, 3/24): 12.5%
- Liver tissue improvement: Ballooning of cell (chronic B hepatitis [4]; ≥middle): 0%
- Liver tissue improvement: Bridging necrosis (chronic B hepatitis [4]; ≥middle): 22.2%
- Liver tissue improvement: Fatty degeneration (chronic B hepatitis [4]; ≥middle): 0%
- Liver tissue improvement: Moderation of lobule (chronic B hepatitis [4]; ≥middle): 0%
- Glisson's capsule improvement: Piecemeal necrosis (chronic B hepatitis [4]; ≥middle): 17.6%
- Glisson's capsule improvement: Fibrosis (chronic B hepatitis [4]; ≥middle): 8.7%
- Glisson's capsule improvement: Round cell infiltration (chronic B hepatitis [4]; ≥middle): 0%
- Liver tissue improvement: Cobwebby necrosis (chronic B hepatitis [4]; ≥middle): 16.7%
- Liver tissue improvement: Degenerative necrosis in cell (chronic B hepatitis [4]; ≥middle): 16.7%
- Liver tissue improvement: Mobilization image of Kupfer cell (chronic B hepatitis [4]; ≥middle): 16.7%
- Liver tissue improvement: Ballooning of cell (chronic B hepatitis [4]; ≥slight): 50.0%
- Liver tissue improvement: Bridging necrosis (chronic B hepatitis [4]; ≥slight): 33.3%
- Liver tissue improvement: Evaluation (chronic B hepatitis [4]; ≥slight, 10/24): 41.7%
- Liver tissue improvement: Fatty degeneration (chronic B hepatitis [4]; ≥slight): 9.1%
- Liver tissue improvement: Moderation of lobule (chronic B hepatitis [4]; ≥slight): 6.7%
- Glisson's capsule improvement: Piecemeal necrosis (chronic B hepatitis [4]; ≥slight): 29.4%
- Glisson's capsule improvement: Fibrosis (chronic B hepatitis [4]; ≥slight): 17.4%
- Glisson's capsule improvement: Round cell infiltration (chronic B hepatitis [4]; ≥slight): 12.5%
- Liver tissue improvement: Cobwebby necrosis (chronic B hepatitis [4]; ≥slight): 37.5%
- Liver tissue improvement: Degenerative necrosis in cell (chronic B hepatitis [4]; ≥slight): 37.5%
- Liver tissue improvement: Mobilization image of Kupfer cell (chronic B hepatitis [4]; ≥slight): 41.7%
- A/G change [5]: .uparw. +
- GOT change [5]: .dwnarw. ***
- GOT, test versus placebo [5]: ** (S>P)
- GPT change [5]: .dwnarw. ***
- GPT, test versus placebo [5]: ** (S>P)
- Serum albumin change [5]: .dwnarw. **
- γ-GPT change [5]: .dwnarw. *
- γ-GPT, test versus placebo [5]: * (S>P)
- Improvement (objective) ([5]; placebo 10%): 8%
- Improvement (sec. judgement) ([5]; placebo 26%): 51%
- Effectiveness (slight or more) ([5]; placebo 29%): 50%
- Improvement (Jud. by Doc.) ([5]; placebo 29%): 56%
- Improvement (general) ([5]; placebo 32%): 59%
- Improvement (self) ([5]; placebo 48%): 50%
- Effectiveness (slight or more) (chronic B hepatitis [6]; 15 mg/day): 38%
- General judgement: Improvement (slight or more) (chronic B hepatitis [6]; 15 mg/day): 36%
- Effectiveness (slight or more) (chronic B hepatitis [6]; 30 mg/day): 60%
- General judgement: Improvement (slight or more) (chronic B hepatitis [6]; 30 mg/day): 62%
- GOT change (chronic B hepatitis [6]; 30 mg/day, 12 weeks): .dwnarw. ***
- GPT change (chronic B hepatitis [6]; 30 mg/day, 12 weeks): .dwnarw. ***
- HBe-Ag (log conversion) change (chronic B hepatitis [6]; 30 mg/day, 12 weeks): .dwnarw. +
- LDH change (chronic B hepatitis [6]; 30 mg/day, 12 weeks): .dwnarw. *
